According to patent publication US20240208933A1, “CRYSTALLINE INHIBITORS OF CYSTEINE PROTEASES AND METHODS OF USE THEREOF” (priority 2021, published 2024):
Where two headings read alike, the source gives them in different places.

Key:
[1] = Dynamic vapor sorption (DVS) analysis; format: physicochemical
[2] = Approximate solubility determined by visual observation; format: physicochemical; details: organic solvent or mixture
Procedure: Approximate solubility was determined by visual observation and shown in Form C Table 8.
Approximate solubility was determined by visual observation and shown in Form F Table 12.

## N#C[C@H](C[C@@H]1CCCNC1=O)NC(=O)[C@H](CC1CC1)NC(=O)c1cc2cccc(Cl)c2[nH]1 [Form C, 7-chloro-N—((S)-1-(((S)-1-cyano-2-((S)-2-oxopiperidin-3-yl)ethyl)amino)-3-cyclopropyl-1-oxopropan-2-yl)-1H-indole-2-carboxamide, anhydrate]
[1]; from about 90% to about 0% RH
  DVS reversible total mass change: about 0.7%
[1]; to about 90% relative humidity (RH) at 25° C.
  DVS gain: about 0.5%
[2]; acetone, solvent Acetone, read-out: Solubility of Form C
  solubility: < 2 mg/mL
[2]; ethanol, solvent Ethanol, read-out: Solubility of Form C
  solubility: > 2 mg/mL
[2]; methanol, solvent Methanol, read-out: Solubility of Form C
  solubility: > 9 mg/mL
[2]; methanol/dichloromethane (1/1), solvent Methanol/Dichloromethane (1/1), read-out: Solubility of Form C
  solubility: > 23 mg/mL
[2]; methanol/dichloromethane (1/2), solvent Methanol/Dichloromethane (1/2), read-out: Solubility of Form C
  solubility: > 28 mg/mL
[2]; methanol/dichloromethane (2/1), solvent Methanol/Dichloromethane (2/1), read-out: Solubility of Form C
  solubility: > 16 mg/mL

## N#C[C@H](C[C@@H]1CCCNC1=O)NC(=O)[C@H](CC1CC1)NC(=O)c1cc2cccc(Cl)c2[nH]1 [Form F, 7-chloro-N—((S)-1-(((S)-1-cyano-2-((S)-2-oxopiperidin-3-yl)ethyl)amino)-3-cyclopropyl-1-oxopropan-2-yl)-1H-indole-2-carboxamide, hydrate]
[1]; from about 0 to about 90% relative humidity (RH), no hysteresis
  DVS reversable gain: about 4 wt. %
[2]; acetone, solvent Acetone, read-out: Solubility of Form F
  solubility: < 2 mg/mL
[2]; ethanol, solvent Ethanol, read-out: Solubility of Form F
  solubility: > 7 mg/mL
[2]; methanol, solvent Methanol, read-out: Solubility of Form F
  solubility: > 11 mg/mL
[2]; methanol/dichloromethane (1/1), solvent Methanol/Dichloromethane (1/1), read-out: Solubility of Form F
  solubility: > 47 mg/mL
[2]; methanol/dichloromethane (1/2), solvent Methanol/Dichloromethane (1/2), read-out: Solubility of Form F
  solubility: > 58 mg/mL
[2]; methanol/dichloromethane (2/1), solvent Methanol/Dichloromethane (2/1), read-out: Solubility of Form F
  solubility: > 19 mg/mL
